We go through two molecules from patent US10011842B2, “Escherichia coli cell line with thyA knockout, folA knockout, and one or both of folP knockout, and folK knockout” (priority 2013, dated 2018).

Assay [1] concerns Plasmodium falciparum parasites. The assay can be described thus: standard hypoxanthine incorporation method in Plasmodium falciparum parasites. Particulars: read-out: IC50 (50% inhibitory concentration). It is filed as cell-based.
In assay [2] the test system is PEcΔTFP transformed with plasmids containing Pfdhfr-ts (WT) and Pfhppk-dhps (WT). The assay can be described thus: growth inhibition of PEcΔTFP surrogate host (antifolate drug screening). It is filed as cell-based, Escherichia coli BL21(DE3). Particulars: PEcΔTFP with wild type Pfdhfr-ts and Pfhppk-dhps, minimal media with L-arabinose, 37 degrees Celsius, 16 hours. How it is done:
(§1) Pyrimethamine and sulfathiazole were chosen for this experiment. The 50% inhibitory concentrations (IC50) of each drug were calculated from dose-response growth curves for PEcΔTFP and PEcΔTFPK surrogates transformed with plasmids containing wild type Pfdhfr-ts and Pfhppk-dhps. Cells were incubated in various concentrations of drug in minimal media supplemented with L-arabinose as an inducer and antibiotics for selection of complementing plasmids in 96-well plates at 37 degrees Celsius for 16 hours.

Assay [3] deals with PEcΔTFPK transformed with plasmids containing Pfdhfr-ts (WT) and Pfhppk-dhps (WT). The assay can be described thus: growth inhibition of PEcΔTFPK surrogate host (antifolate drug screening). Particulars: PEcΔTFPK with wild type Pfdhfr-ts and Pfhppk-dhps, minimal media with L-arabinose, 37 degrees Celsius, 16 hours. It counts as cell-based, Escherichia coli BL21(DE3). The method, then:
as §1

On to `CCc1nc(N)nc(N)c1-c1ccc(Cl)cc1` [pyrimethamine], for which, in assay [1], the IC50 is 0.041 ± 0.006 µM.

Turning to `Nc1ccc(S(=O)(=O)Nc2nccs2)cc1` [sulfathiazole], the IC50 in assay [1] stood at 135.4 ± 0.49 µM. Besides, the “IC50 from dose-response growth curves compared with the standard method” value in assay [2] and in assay [3] was “very similar to values from the standard hypoxanthine incorporation method” throughout.
